Test results as given in patent US8969303B2, “Tocotrienol esters” (First Tech International Limited, priority 2010, dated 2015).

Experiments:
[1] = Stability in phosphate buffer; format: physicochemical; conditions: 24 h, 500 μg/mL, pH 7.4
Procedure: The stability of each of α-tocotrienol and Compound 6 was studied at 37° C. in phosphate buffer (pH 7.4). In amber vials, 500 μg/mL of each compound were dissolved in the buffer and the solution was incubated at 37° C. At interval times (0, 0.5, 1, 2, 4, 6, and 24 h), 50 μL it samples were collected and equal volumes of methanol were added to each sample followed by HPLC analysis.
(§1) A Shimadzu HPLC system (Columbia, Md.) was used for quantification of α-tocotrienol and Compound 6. This system is composed of SIL 20-AHT autosampler, SPD-20A UV/VIS detector, and LC-20AB pump connected to a Dgu-20A3 degasser. Data acquisition was achieved by LC Solution software version 1.22 SP1 Shimadzu. The following chromatographic conditions were used: […] (250×4.6 mm id; Phenomenex, Torrance, Calif.), flow rate was adjusted to 1.0 mL/min, and λ was set at 295 nm. For α-tocotrienol solubility and stability studies, an isocratic elution with MeOH-EtOH—CH3CN (40:30:30, v/v/v) as mobile phase for 10 min. α-tocotrienol was eluted at 6.7 min. For the simultaneous separation of α-tocotrienol and Compound 6 the following gradient elution was also used starting with H2O— MeOH—N(Et)3 (10:90:0.05, v/v/v) for 5 min, followed by isocratic MeOH—N(Et)3 (100:0.05, v/v) for another 10 min. The retention times were 4 and 14.1 for Compound 6 and α-tocotrienol, respectively. Standard curves for α-tocotrienol and Compound 6 in MeOH were prepared in the range of 0.4-50 μg/mL and 1-1000 μg/mL, respectively. Each compound was quantified using its calibration curve for compounds peak area versus its concentration.

[2] = Water solubility in phosphate buffer; format: physicochemical; conditions: phosphate buffer pH 7.4, 25° C.
Procedure: About 5.6 mg of each of α-tocotrienol and Compound 6 were added to 3 mL of phosphate buffer (pH 7.4) in amber vials. Tested solutions were maintained shaking under at 25° C. for 24 h in a constant-temperature water bath. Each solution was then centrifuged at 5,000 rpm for 10 min before collecting samples from the clear supernatant at 0, 1, 2, 4, 6, and 24 h. Each compound concentration in the aspirates was determined by HPLC. […] The solubility of α-tocotrienol maleate (Compound 6) was nearly 1000 fold that of its parent α-tocotrienol.
A Shimadzu HPLC system (Columbia, Md.) was used for quantification of α-tocotrienol and Compound 6. This system is composed of SIL 20-AHT autosampler, SPD-20A UV/VIS detector, and LC-20AB pump connected to a Dgu-20A3 degasser. Data acquisition was achieved by LC Solution software version 1.22 SP1 Shimadzu. The following chromatographic conditions were used: […] (250×4.6 mm id; Phenomenex, Torrance, Calif.), flow rate was adjusted to 1.0 mL/min, and λ was set at 295 nm. For α-tocotrienol solubility and stability studies, an isocratic elution with MeOH-EtOH—CH3CN (40:30:30, v/v/v) as mobile phase for 10 min. α-tocotrienol was eluted at 6.7 min. […] Each compound was quantified using its calibration curve for compounds peak area versus its concentration.

Stability in rat plasma = format: in vitro ADME; conditions: 37° C.
Procedure: The stability of each of α-tocotrienol and Compound 6 was studied at 37° C. in rat plasma. In amber vials, 50 μg/mL of each Compound were dissolved in the plasma. The solution was incubated at 37° C., and at interval times (0, 0.5, 1, 2, 4, 6, and 24 h), 50 μL samples were taken and mixed with 100 μL of methanol followed by centrifugation at 14,000 rpm for 10 min. Each supernatant was analyzed by HPLC. In rat plasma, Compound 6 concentration was 100% stable over the first 3 h. Its concentration then started to decrease at the […] to become 81% and 77% of the initial concentration, respectively. After 24 hours, only 43% of the initial concentration of Compound 6 was detectable. The slow rate of hydrolysis of Compound 6 compared to α-tocotrienol may bode well for expected enhanced metabolic stability.
as §1

[3] = test system: +SA mammary epithelial cells; test: Antiproliferative MTT assay on +SA mammary epithelial cells; format: cell-based, mouse; conditions: malignant mice +SA mammary cells, 24 hour treatment, MTT
Excerpt: +SA mammary epithelial cell lines were serially passaged at subconfluent cell density. The +SA cell line was derived from an adenocarcinoma that developed spontaneously in a BALB/c female mouse. That cell line is discussed in more detail in Anderson, L. W., Danielson, K. G., Hosick, H. L. Eur. J. Cancer Clin. Oncol. 1981, 17, 1001-1008, Danielson, K G., Anderson, L. W., Hosick, H. L. Cancer Res. 1980, 40, 1812-1819.31, and Anderson, L. W., Danielson, K. G., Hosick, H. L. In Vitro. 1979, 15, 841-843. Cell culture conditions were similar to those described in detail in Shah, S. J., Gapor, A., Sylvester, P. W. Nutr. Cancer. 2003, 45, 236-246, Shah, S. J., Sylvester, P. W. Biochem. Cell. Biol. 2005, 83, 86-95, Wali, V. B., Sylvester, P. W. Lipids, 2007, 42, 1113-1123, and Wali, V. B., Bachawal, S. V., Sylvester, P. W. Exp. Biol. Med. (Maywood) 2009, 234, 639-650. Briefly, +SA cells were maintained in serum-free defined medium consisting of Dulbecco's modified Eagle's medium (DMEM)/F12 containing 5 mg/ml bovine serum albumin (BSA), […], 100 U/ml soybean trypsin inhibitor, 100 U/ml penicillin, 0.1 mg/ml streptomycin, […], and 10 ng/ml epidermal growth factor. For subculturing, cells were rinsed twice with sterile Ca^2+ and Mg^2+-free phosphate buffered saline (PBS) and incubated in 0.05% trypsin containing 0.025% EDTA in PBS for 5 minutes at 37° C. The released cells were centrifuged, resuspended in serum-free defined media and counted using a hemocytometer. A stock solution of the Compounds was prepared in DMSO. Once dissolved, this solution was added to a small volume of sterile 10% BSA in water and incubated overnight at 37° C. This solution conjugated to BSA was used to prepare various concentrations (0-40 μM) of tocotrienol analogs. DMSO was added to all treatment media such that the final DMSO concentration was the same in all treatment groups within a given experiment and was always less than 0.1%. For cytotoxicity studies, cells were seeded at a density of 5×10^4 cells/well (6 wells/group) in 24-well culture plates and allowed to grow in serum-free control defined media. After a 3 day incubation period (approximately 70% confluency), cells were divided equally into various treatment groups and exposed to their respective treatments for a 24 hour incubation period. Following the 24 hour treatment period, cell viability was measured using the MTT assay. All materials were purchased from Sigma Chemical Company (St. Louis, Mo.) unless otherwise stated.
+SA mammary epithelial cell viable number was determined by the 3-(4,5-dimethylthiazol-2-yl)-2,5-diphenyl tetrazolium bromide (MTT) colorimetric assay. On the day of assay, treatment medium was replaced with fresh growth medium containing 0.42 mg/ml MTT, and the cells in 24-well plates were incubated at 37° C. for 4 hours. Afterward, the medium was removed, and the MTT crystals were dissolved in isopropyl alcohol (1 ml/well). The optical density of each sample was read at 570 nm on a microplate reader (SpectraCount, Packard BioScience Company), against a blank prepared from cell-free cultures. The number of cells/well was calculated against a standard curve prepared by plating various concentrations of cells, as determined by hemocytometer, at the start of each experiment.
Differences among the various treatment groups in +SA cell cytotoxic studies were determined by analysis of variance (ANOVA) followed by Dunnett's t-test. The difference of P<0.05 was considered to be statistically significant as compared with vehicle-treated controls. Linear regression analysis of treatment effects on viable cell number in growth and cytotoxicity studies was used to determine the 50% growth inhibition concentration (IC50) for individual treatments.

chemical stability relative to the zero time concentration [1]: 100%
solubility relative to parent α-tocotrienol [2]: ~1000 fold
% of the initial concentration in rat plasma (Stability in rat plasma; 4th hour): 81%
% of the initial concentration in rat plasma (Stability in rat plasma; 5th hour): 77%
% of the initial concentration in rat plasma (Stability in rat plasma; after 24 hours): 43%
concentration stable in rat plasma (Stability in rat plasma; over the first 3 h): 100%
Structure (SMILES): CC(C)=CCC/C(C)=C/CC/C(C)=C/CC[C@]1(C)CCc2c(C)c(OC(=O)/C=C\C(=O)O)c(C)c(C)c2O1 [Compound 6, (Z)-4-oxo-4-((R)-2,5,7,8-tetramethyl-2-((3E,7E)-4,8,12-trimethyltrideca-3,7,11-trienyl)chroman-6-yloxy)but-2-enoic acid]
IC50 ([3]; Mus musculus, Epithelial cell, 24 h): 0.51 µM
IC50 [3]: 0.52 µM
